Like-named read-outs stand apart in the source and are kept apart here.

The test system of series [1] is basal serum prolactin levels. Description: Lowering basal serum prolactin levels in the male rat (prolactin secretion inhibition). The series is classed as in vivo. Particulars: lowering basal serum prolactin levels, male rat, after 4 hours; read-out: ID50 after 4 hours. From the text:
Many of the above mentioned compounds are published as prolactin secretion inhibitors, some of which are extremely potent and have long lasting activity. The potency of the compounds as prolactin secretion inhibitors can be determined in standard tests, e.g. by lowering basal serum prolactin levels in the male rat.
Results with representative compounds include:-

The test system of series [2] is splenic lymphocytes forming lytic antibodies to the SRBC. Description: Antibody producing cell development in the mouse (PFC test), plaque forming cells to SRBC. It is filed as in vivo. Particulars: for percent change from control at 1 mg/kg/day: Mus musculus, Splenic lymphocyte, sc, 144 h, Test A, 1.0 mg/kg/day s.c., 6 days. On the procedure: These methods permit the quantitation of the number of splenic lymphocytes forming lytic antibodies to the SRBC and the distinction between IgM and IgG producing cells.
The intravenous injection of SRBC (5 x 10⁷) in 0.2 ml i.v. served as the primary immunization antigen source in the mouse studies. The mice in these studies were female C57 black of ca 20 grams body weight. All animals were pretreated with the respective compounds for one day prior to the SRBC treatment and daily treated thereafter at 11.00 h for a total of 6 days. The spleens were removed for the determination of PFC numbers to the SRBC antigen.
The spleen cells were suspended in Hepes-buffered Balanced Salt Solution (HBSS), washed once, and resuspended in a volume adjusted according to the expected number of plaque forming cells. The direct quantitiation of IgM-PFC was performed by plaquing 0.1 ml of the diluted splenic cells with 0.025 ml of SRBC (30%), 0.3 ml Agar (0.5% in HBSS), and 0.025 ml complement (guinea pig serum) and plated on Petri dishes. An indirect method of IgG-PFC quantitation was performed with a monoclonal antibody to the IgM (1:4 dilution) plus an anti-gama polyspecific antiserum (1:800) to permit complement fixation. The splenic lymphocytes from each mouse spleen were plated to quantitate IgM- and IgG-PFC in duplicate. All plates were incubated for 4 hours at 37°C and then stored overnight in humidified chambers at 4°C. Plaques were counted by hand with the use of a plaque counter.

For series [3], the system named is Local graft versus host (GvH). The experiment in a line: Local graft versus host (GvH) reaction in the rat, lymph node weight. The series is classed as in vivo. Particulars: 0.01 mg/kg/day. On the procedure:
Spleen cells (ca 1 x 10⁷) are taken from 6 week old Wistar/Furth/(W/F) rats and are injected into the left hind paw of female (F 344 x WF) F1 rats weighing about 100 g. The rats had been treated daily with the compound from 7 days before the injection and are treated daily for 3 days thereafter. The difference in weight between the left and right lymph nodes is taken as the parameter for evaluating the reaction.

A short description of series [4]: Acute toxicity (LD50) in the mouse. Particulars: in vivo. An excerpt: (§1) Toxicity data for some of the comounds of the invention have been published. Such data may be determined by routine experimentation. TOXICITY DATA for representative compounds NTEL = No toxic effect level.
Series [5] in a line: No toxic effect level (NTEL), repeated oral dosing in rats. The settings on record: rat, in vivo, 4 weeks, p.o.
Text: as §1

Series [6] concerns grafted neonatal heart tissue. The experiment in a line: Grafting of neonatal heart tissue into ears of mice, graft survival with co-administered cyclosporine. The settings on record: 0.05 mg/kg/day s.c. with cyclosporine 18 mg/kg/day s.c.; group of 10 animals. The series is classed as in vivo, mouse. From the text: In this in-vivo test the rejection time of grafted neonatal heart tissue was increased by the compounds of the invention.
In one method a small incision was made at the base of the ear of a C 57 BL mouse (H-2^b). Blunt or fine tweezers were used to loosen the dorsal layer of skin from the cartilaginous layer in order to form a pocket. One half of a heart taken from 1 to 2 day old Balb/c mouse (H-2^d) was then inserted in the pocket. At 6 days post grafting and every week thereafter, the heart graft survival was monitored with microelectrodes placed on each side of the graft. A dynograft recorded was used to record electrical activity emanating from the graft. The end point of graft survival was taken as the time when the electrical activity was lost. Untreated mice rejected the implant after 8 1/2 days.
In this model effective immunosuppression was considered to have occurred if the time to rejection was increased to at least 17 days. […] With the compound A at 0.05 mg/kg/day, s.c.), 50 per cent of the heart allografts in a group of 10 animals were active on day 17.

Setting [7] is: combination: 36 mg/kg/day s.c. of Cyclosporine with 0.1 mg/kg/day of compound A.

As to `CCCN1CC(NS(=O)(=O)N(CC)CC)CC2Cc3c(O)cccc3CC21` (centres unmarked) [Compound A], in series [1], the ED50 came to 0.03 mg/kg. Moreover, the percent change from control at 1 mg/kg/day in series [2] (read-out: IgG % of control) was -71.6%; in series [2] (read-out: IgM % of control) it was -55.4%. In series [2] (setting [7]), the “reduction of IgG titre” value came out at 79.1%. The “reduction of IgM titre” value in series [2] (setting [7]) turned out to be 62.6%. Also, in series [3] (control ca 63 mg), the Weight lymph node entry is listed as “ca 50 mg”. The “Percentage Difference” value in series [3] (versus control ca 63 mg) is given as -21%. Moreover, in series [4] (iv, over 7 days, read-out: acute LD₅₀ (mouse) i.v.), the LD50 at 168 h was found to be 17 mg/kg. The LD50 at 336 h in series [4] (po, over 14 days, read-out: acute LD₅₀ (mouse) p.o.) was 357 mg/kg. Further, in series [5], the no observed adverse effect level (NOAEL) at 672 h is 0.2 to 0.57 mg/kg/day. Besides, the “heart allografts active on day 17” value in series [6] was found to be 50 per cent.
